One may read the melting point as the temperature of the solid-liquid transition. For the compound `CC(C)S(=O)(=O)NCC(C)(F)c1ccc(-c2ccc(CC#N)cc2)cc1` (stereo not shown) [Example 9, 2-{4-[4-(1-Fluoro-1-methyl-2-{[(methylethyl)sulfonyl]amino}ethyl)phenyl]phenyl}ethanenitrile], the melting point was in the range of 155 to 157 °C.
